{
  "source": "paper PMC11847841",
  "about": "“The development and evaluation of a tublysine-based antibody-drug conjugate with enhanced tumor therapeutic efficacy” (Frontiers in Pharmacology, 2025)",
  "key": {"[1]": {"conditions": "cited from earlier work; for Cmax of free payload: ref Poon et al., 2013"}, "tumor cells": {"test_system": "tumor cells", "assay": "In vitro cytotoxicity of Tub114 and Tub114-cys", "type": "cell-based", "conditions": "at the same concentration as the corresponding ADC; Supplementary Figure S2", "experimental": "EC50 values were calculated using the built-in software."}, "[2]": {"test_system": "BT-474 human breast cancer xenografts", "assay": "BT-474 xenograft efficacy study", "type": "in vivo, BALB/c nude mice", "conditions": "BT-474 model, administered alone"}, "[3]": {"assay": "Single-dose pharmacokinetic study in cynomolgus monkey"}, "[4]": {"test_system": "HER2-positive BT-474 cells", "assay": "In vitro endocytosis into BT-474 cells", "type": "cell-based, human", "experimental": "(§1) BT-474 and SK-BR-3 cells were cultured to the exponential growth phase, harvested, and washed with pre-cooled PBS. […] Alexa Fluor 488-conjugated goat anti-human IgG (H + L) secondary antibody (10 μg/mL; Invitrogen, Shanghai, China) was subsequently added, and the cells were incubated on ice for 30 min. After additional washes, the cells were resuspended in pre-cooled PBS, divided into five aliquots, and incubated at 37°C for 0, 10, 30, 90, or 120 min. At each time point, cells were further split into two sub-aliquots: one treated with Trypan Blue to quench extracellular fluorescence and the other with PBS as an unquenched control. Fluorescence intensity was measured using a flow cytometer (Guava, Merck Millipore). The percentage of endocytosis was calculated as the ratio of quenched to unquenched fluorescence multiplied by 100%."}, "[5]": {"test_system": "HER2-positive SK-BR-3 cells", "assay": "In vitro endocytosis into SK-BR-3 cells", "type": "cell-based, human", "experimental": "as §1"}, "[6]": {"test_system": "HER2-negative cell line MDA-MB-468", "assay": "In vitro inhibition of proliferation of HER2-negative cells (EZMTT)", "type": "cell-based, human", "conditions": "at high concentrations"}, "[7]": {"conditions": "exceeds total body water content in rats; ref Pharmaceuticals and Medical Devices Agency, 2013; cited from earlier work"}, "[8]": {"conditions": "Tub114-cys alone 1 mg/kg single administration"}, "[9]": {"conditions": "free Tub114-cys in plasma after DX126-262 3 mg/kg single i.v."}, "[10]": {"conditions": "free Tub114-cys in plasma after DX126-262 10 mg/kg single i.v."}, "[11]": {"conditions": "free Tub114-cys in plasma after DX126-262 30 mg/kg single i.v."}},
  "note": "Read-outs that look alike come from different tables or passages of the source.",
  "data": [
    {"compound": "CC[C@@]1(O)C(=O)OCc2c1cc1n(c2=O)Cc2c-1nc1cc(F)c(C)c3c1c2[C@@H](NC(=O)CO)CC3", "note": "[Dxd]", "values": [
      {"measurement": "Vss", "setting": "[1]; Dxd 1 mg/kg, ref Nagai et al., 2019", "result": 0.832, "unit": "L/kg"}
    ]},
    {"compound": "CCC(C)C(NC(=O)C(C)(C)N(C)C)C(=O)N(C)C(CC(OC(C)=O)c1nc(C(=O)NC(Cc2ccc(O)c(NC(=O)CCCNC(=O)C(CCCCNC(=O)COCCOCCOCCOCCOCCOCCOCCOCCOCCOC)NC(=O)CCCN3C(=O)CC(SCC(N)C(=O)O)C3=O)c2)CC(C)C(=O)O)cs1)C(C)C", "note": "(centres unmarked) [Tub114-cys]", "values": [
      {"measurement": "Killing of tumor cells by free payload", "setting": "tumor cells", "result": "neither Tub114 nor Tub114-cys could kill tumor cells at the same concentration as the corresponding ADC"},
      {"measurement": "Antitumor effect", "setting": "[2]", "result": "no antitumor effect"},
      {"measurement": "Cmax of free payload", "setting": "[3]; Tub114-cys after 3 mg/kg DX126-262", "result": 5.5, "unit": "nM"},
      {"measurement": "Cmax of free payload", "setting": "[3]; Tub114-cys after 10 mg/kg DX126-262", "result": 14.6, "unit": "nM"},
      {"measurement": "Cmax of free payload", "setting": "[3]; Tub114-cys after 30 mg/kg DX126-262", "result": 31.7, "unit": "nM"},
      {"measurement": "AUCinf", "setting": "[3]; [8]", "result": "4,501.5 ± 657.9 ng•hr/mL"},
      {"measurement": "CL", "setting": "[3]; [8]", "result": "3.772 ± 0.578", "unit": "mL/min/kg"},
      {"measurement": "Cmax", "setting": "[3]; [8]", "result": "4,155.8 ± 464.2 ng/mL"},
      {"measurement": "T1/2", "setting": "[3]; [8]", "result": "1.2 ± 0.2", "unit": "h"},
      {"measurement": "Vss", "setting": "[3]; [8]", "result": "0.2538 ± 0.0307", "unit": "L/kg"},
      {"measurement": "AUC inf", "setting": "[3]; [9]", "result": "519.2 ± 381.9", "unit": "ng·h/mL"},
      {"measurement": "Cmax", "setting": "[3]; [9]", "result": "9.5 ± 1.1", "unit": "ng/mL"},
      {"measurement": "T1/2", "setting": "[3]; [9]", "result": "51.4 ± 47.1", "unit": "h"},
      {"measurement": "AUC inf", "setting": "[3]; [10]", "result": "966.4 ± 115.4", "unit": "ng·h/mL"},
      {"measurement": "Cmax", "setting": "[3]; [10]", "result": "25.0 ± 5.2", "unit": "ng/mL"},
      {"measurement": "T1/2", "setting": "[3]; [10]", "result": "26.6 ± 6.6", "unit": "h"},
      {"measurement": "AUC inf", "setting": "[3]; [11]", "result": "2,505.7 ± 419.6 ng•hr/mL"},
      {"measurement": "Cmax", "setting": "[3]; [11]", "result": "54.3 ± 5.7", "unit": "ng/mL"},
      {"measurement": "T1/2", "setting": "[3]; [11]", "result": "28.1 ± 2.7", "unit": "h"}
    ]},
    {"compound": "ado-trastuzumab emtansine [Kadcyla]", "values": [
      {"measurement": "Endocytosis Efficiency", "setting": "[4]; BT-474, incubation time 0 min", "result": 10.8, "unit": "%"},
      {"measurement": "Endocytosis Efficiency", "setting": "[4]; BT-474, incubation time 10 min", "result": 27.3, "unit": "%"},
      {"measurement": "Endocytosis Efficiency", "setting": "[4]; BT-474, incubation time 30 min", "result": 34.2, "unit": "%"},
      {"measurement": "Endocytosis Efficiency", "setting": "[4]; BT-474, incubation time 90 min", "result": 38.6, "unit": "%"},
      {"measurement": "Endocytosis Efficiency", "setting": "[4]; BT-474, incubation time 120 min", "result": 43.8, "unit": "%"},
      {"measurement": "Endocytosis Efficiency", "setting": "[5]; SK-BR-3, incubation time 0 min", "result": 9.3, "unit": "%"},
      {"measurement": "Endocytosis Efficiency", "setting": "[5]; SK-BR-3, incubation time 10 min", "result": 11.8, "unit": "%"},
      {"measurement": "Endocytosis Efficiency", "setting": "[5]; SK-BR-3, incubation time 30 min", "result": 17.4, "unit": "%"},
      {"measurement": "Endocytosis Efficiency", "setting": "[5]; SK-BR-3, incubation time 90 min", "result": 31.6, "unit": "%"},
      {"measurement": "Endocytosis Efficiency", "setting": "[5]; SK-BR-3, incubation time 120 min", "result": 33.4, "unit": "%"},
      {"measurement": "Toxicity to HER2-negative cell line MDA-MB-468", "setting": "[6]", "result": "some inhibitory effects"}
    ]},
    {"compound": "COc1cc2cc(c1Cl)N(C)C(=O)C[C@H](OC(=O)[C@H](C)N(C)C(=O)CCS)[C@]1(C)O[C@H]1[C@H](C)[C@@H]1C[C@@](O)(NC(=O)O1)[C@H](OC)/C=C/C=C(\\C)C2", "note": "[DM1]", "values": [
      {"measurement": "Vss", "setting": "[7]", "result": "> 0.668", "unit": "L/kg"},
      {"measurement": "Cmax of free payload", "setting": "[1]; DM1 after 3 mg/kg Kadcyla", "result": 8.0, "unit": "nM"},
      {"measurement": "Cmax of free payload", "setting": "[1]; DM1 after 10 mg/kg Kadcyla", "result": 28.2, "unit": "nM"},
      {"measurement": "Cmax of free payload", "setting": "[1]; DM1 after 30 mg/kg Kadcyla", "result": 90.2, "unit": "nM"}
    ]}
  ]
}
